# Columns and labels:
# [1] = system: bovine brain capillary endothelial cell monolayers; experiment: Competition of [125I]-p97 binding on bovine brain capillary endothelial cell monolayers; details: [125I]-p97 25 nM, 2 h at 4° C., competitor 7.5 micromolar (FIG. 3)
# Description: FIG. 3. Binding of p97 on bovine brain capillary endothelial cell monolayers. Binding p97 was performed with BBCECs that were pre-incubated 2 hrs in Ringer-Hepes to avoid any interference from the astrocytes. For the binding experiments, cells were incubated for 2 h at 4° C. in Ringer/Hepes in the presence of [^125I]-p97 (25 nM) and 7.5 micromolar concentrations of cold-p97, transferrin or lactoferrin, respectively. At the end of the incubation, the filters were gently washed at 4° C. three times with 4 ml of cold-PBS. Then the associated radioactivity of endothelial cells was determined by removing the membrane of the culture insert and counting it in a gamma counter.
# B. Binding studies of p97. Binding of p97 was performed with BBCECs and Rat Brain Endothelial Cells that were pre-incubated 2 hrs in Ringer/Hepes to avoid any interference from the astrocytes.
# For the binding experiments, cells were incubated for 2 h at 4° C. in Ringer/Hepes in the presence of [^125I]-p97 (25 nM) and increasing concentrations of cold-p97 or high (7.5 micromolar) concentrations of transferrin or lactoferrin. At the end of the incubation, the filters were gently washed at 4° C. three times with 4 ml of cold-PBS. Then the associated radioactivity of endothelial cells was determined by removing the membrane of the culture insert and counting it in a gamma counter.
# RBE4 cells = experiment: Competition of [125I]-p97 binding on rat brain endothelial cells (RBE4); details: competitor 10 micromolar, 2 hrs at 4° C. (FIG. 4)
# Description: FIG. 4. Binding of p97 on rat brain endothelial cells. Binding p97 was performed with RBE4 that were pre-incubated 2 hrs in Ringer-Hepes. For the binding experiments, cells in 24-well microplates were incubated for 2 h at 4° C. in Ringer/Hepes in the presence of [^125I]-p97 (25 nM) and 10 micromolar concentrations of cold-p97, transferrin or lactoferin, respectively. At the end of the incubation, the cells were gently washed at 4° C. three times with 4 ml of cold-PBS. RBE4 cells were then lysed with Triton X-100 and the associated radioactivity of with cell lysates was determined.
# RBE4 cells were grown in monolayers in 24 wells plastic tissue culture flasks at 37° C. under 5% CO2 in minimum essential medium Alpha and Ham's F10 (1:1) supplemented with 10% heat inactivated fetal bovine serum. For p97 binding experiments, RBE4 cells were pre-incubated at 37° C. for 2 hrs in Ringer/Hepes. ^125I-p97 in 200 μl of Ringer/Hepes was added to RBE4 cells for 2 hrs at 4° C. in the presence or absence of high concentration of cold-p97, human holo-transferrin or human lactoferrin. After the incubation, the cells were washed 4 times with PBS and the ^125I-p97 associated with the cells was measured.
# [2] = In situ brain perfusion with capillary depletion; format: in vivo; details: mice, 10 min perfusion, 10 nM [125I]-protein (FIG. 11b)
# Description: FIG. 11 examines the accumulation and transcytosis of p97. FIG. 11a, of [^125I]-p97, [^125I]-BSA and [^125I]-holo-transferrin one hour after i.v. injection. The radioactivity in brain was compared between the three compounds. (n=3); FIG. 11b, Accumulation of p97 and transferrin into the mouse brain parenchyma. In situ brain perfusion was performed with human [^125I]-p97 or [^125I]-holo-transferrin at a final concentration of 10 nM via a catheter inserted in the right common carotid artery. The volume of distribution (VD) of [^125I]-proteins were obtained in the whole brain homogenate (white bars), in brain capillaries (solid bars) and in brain parenchyma (hatched bars) after isolation of the right hemisphere and capillary depletion. Results were obtained for p97 (n=10) and for holo-transferrin (n=6); FIG. 11c, Transcytosis of p97 across BBCEC monolayers. Transcytosis experiments were performed 37° C. (open circles) and 4° C. (closed circles) with BBCEC monolayers. […] Apical-to-basal and basal-to-apical transport of [^125I]-p97 (25 nM) was measured for 2 hrs at 37° C. At the end of the experiment, [^125I]-p97 was assessed in the lower or upper chambers of each well by TCA precipitation (n=4).
# A. Brain uptake and in situ brain perfusion. […] The serum and brain samples were collected and the levels of radioactivity were measured. […]
substance,measurement,setting,value
"transferrin: transferrin (Tf), iron-binding serum protein used as comparator and competitor",Inhibition of [125I]-p97 binding to BBCECs,[1],did not block or reduce
same,Inhibition of [125I]-p97 binding to RBE4 cells,RBE4 cells,does not
same,Apparent VD in the brain parenchyma,[2],2.4 ml/100 g
